From BindingDB's records for doi:10.1021/jm00169a007 (University of Arizona, 1990)
pIC50: −log10 of the molar value. Positions of bridges follow the written chain, without caps; N, C: chain ends. Residues, ends and D or L forms follow the SMILES beside them.

Assay: Binding affinity against Opioid receptor delta 1 in guinea pig brain homogenate using [3H]- DPDPE as radioligand

With CC(C)C[C@@H]1NC(=O)[C@H](CCCCN)NC(=O)[C@@H]2CCCN2C(=O)[C@H](CCCNC(=N)N)NC(=O)[C@H](NC(=O)[C@H](CCCNC(=N)N)NC(=O)[C@H](CCCNC(=N)N)NC(=O)[C@H](CC(C)C)NC(=O)[C@H](Cc2ccccc2)NC(=O)CNC(=O)CNC(=O)[C@@H](N)Cc2ccc(O)cc2)CSSC[C@@H](C(N)=O)NC1=O as the molecule, how does the pIC50 read?
Its pIC50 is 6.98.

With CC(C)C[C@@H]1NC(=O)[C@H](CCCCN)NC(=O)[C@@H]2CCCN2C(=O)[C@H](CCCNC(=N)N)NC(=O)[C@@H](NC(=O)[C@H](CCCNC(=N)N)NC(=O)[C@H](CCCNC(=N)N)NC(=O)[C@H](CC(C)C)NC(=O)[C@H](Cc2ccccc2)NC(=O)CNC(=O)CNC(=O)[C@@H](N)Cc2ccc(O)cc2)CSSC[C@@H](C(N)=O)NC1=O as the molecule, how does the pIC50 read?
The pIC50 was 8.40.

With CC[C@H](C)[C@@H]1NC(=O)[C@H](CCCNC(=N)N)NC(=O)[C@H](CCCNC(=N)N)NC(=O)[C@@H](NC(=O)[C@H](Cc2ccccc2)NC(=O)CNC(=O)CNC(=O)[C@@H](N)Cc2ccc(O)cc2)CSSC[C@@H](C(N)=O)NC(=O)[C@@H]2CCCN2C(=O)[C@H](CCCNC(=N)N)NC1=O (H-YGGFCRRIRPC-NH2; disulfide 5-11) as the molecule, how does the pIC50 read?
The pIC50 was 8.80.

With CC[C@H](C)[C@H](NC(=O)[C@H](CCCNC(=N)N)NC(=O)[C@H](CCCNC(=N)N)NC(=O)[C@H](CC(C)C)NC(=O)[C@H](Cc1ccccc1)NC(=O)CNC(=O)CNC(=O)[C@@H](N)Cc1ccc(O)cc1)C(=O)N[C@@H](CCCNC(=N)N)C(=O)N1CCC[C@H]1C(=O)N[C@@H](CCCCN)C(N)=O as the molecule, how does the pIC50 read?
Its pIC50 is 8.15.

With C[C@H]1NC(=O)[C@H](CCCNC(=N)N)NC(=O)[C@H](CCCNC(=N)N)NC(=O)[C@@H](NC(=O)[C@H](Cc2ccccc2)NC(=O)CNC(=O)CNC(=O)[C@@H](N)Cc2ccc(O)cc2)CSSC[C@@H](C(N)=O)NC(=O)[C@@H]2CCCN2C(=O)[C@H](CCCNC(=N)N)NC1=O as the molecule, how does the pIC50 read?
The pIC50 was 7.72.

With CC(C)C[C@H](NC(=O)[C@H](Cc1ccccc1)NC(=O)CNC(=O)CNC(=O)[C@@H](N)Cc1ccc(O)cc1)C(=O)N[C@@H](CCCNC(=N)N)C(=O)N[C@@H](CCCNC(=N)N)C(=O)N[C@@H]1CSSC[C@H](C(N)=O)NC(=O)[C@H](CC(C)C)NC(=O)[C@H](CCCCN)NC(=O)[C@@H]2CCCN2C(=O)[C@H](CCCNC(=N)N)NC1=O as the molecule, how does the pIC50 read?
Its pIC50 is 7.85.

With CC[C@H](C)[C@H](NC(=O)[C@H](CCCNC(=N)N)NC(=O)[C@H](CCCNC(=N)N)NC(=O)[C@H](CC(C)C)NC(=O)[C@H](Cc1ccccc1)NC(=O)CNC(=O)CNC(=O)[C@@H](N)Cc1ccc(O)cc1)C(=O)N[C@@H](CCCNC(=N)N)C(=O)N1CCC[C@H]1C(=O)N[C@@H](CCCCN)C(=O)N[C@@H](CC(C)C)C(=O)N[C@@H](CCCCN)C(N)=O as the molecule, how does the pIC50 read?
Its pIC50 is 8.39.
